Measured values reported in the RepoRT retention time repository (doi:10.1021/acs.analchem.2c02893).

Test: RP, Thermo Scientific Acclaim RSLC 120 C18, 100 × 2.1 mm, 2.2 µm, 30 °C, 0.2 mL/min, estimated dead time 1.1 min; A: 90% water + 10% methanol + 0.01% formic acid + 5 mM ammonium formate, pH 3.61; B: methanol + 0.01% formic acid + 5 mM ammonium formate, pH 3.61; gradient (min/%B) 0/1 1/1 2/39 13/99.9 15/99.9 15.1/1 20.1/1
Settings: stereoisomer not certain

Row | Structure (SMILES) | LC retention time
1 | COCc1cnc(C2=NC(C)(C(C)C)C(=O)N2)c(C(=O)O)c1 (configuration not stated) [Imazamox] | 4.63 min
2 | CC(=O)C1(O)CCC2C3CC(C)C4=CC(=O)CCC4(C)C3CCC21C (configuration not stated) [Medroxyprogesterone] | 10.7 min
3 | O=C1c2ccccc2C(=O)C1C(=O)C(c1ccccc1)c1ccccc1 [Diphacinone] | 8.6 min
4 | CC12CCC3=C4CCC(=O)C=C4CCC3C1CCC2(O)CC#N (configuration not stated) [Dienogest] | 8.09 min
5 | CC12C=CC(=O)C=C1CCC1C2CCC2(C)C(O)CCC12 (configuration not stated) [Boldenone] | 9.03 min
6 | O=C(Oc1cccc2cccnc12)c1cn(CC2CCCCC2)c2ccccc12 [BB-22] | 12.4 min
7 | CCOP(=S)(OCC)Oc1ccc(=O)n(-c2ccccc2)n1 [Pyridaphenthion] | 9.79 min
8 | O=C1Nc2ccc(Cl)cc2C(c2ccccc2)=NC1O (configuration not stated) [Oxazepam] | 8.43 min
9 | CNC(=O)Oc1cc(C)c(C)c(C)c1.CNC(=O)Oc1cc(C)cc(C)c1C [Trimethacarb (2.3.5-)] | 8.4 min
10 | CCCN(CC)CC1COC2(CCC(C(C)(C)C)CC2)O1 (configuration not stated) [Spiroxamine] | 9.32 min
11 | CCOc1cc(Oc2ccc(C(F)(F)F)cc2Cl)ccc1[N+](=O)[O-] [Oxyfluorfen] | 12.1 min
12 | CC(C)Oc1cccc(NC(=O)c2ccccc2C(F)(F)F)c1 [Flutolanil] | 9.52 min
13 | COc1cc(OC)nc(NC(=O)NS(=O)(=O)c2cc(NC=O)ccc2C(=O)N(C)C)n1 [Foramsulfuron] | 7.54 min
14 | CC(C)(C)C(NC(=O)c1cn(CCCCCF)c2ccccc12)C(N)=O (configuration not stated) [ADBICA-5F] | 9.72 min
15 | CN(C)c1ccc(N=Nc2ccccc2)cc1 [Butter yellow] | 12.4 min
16 | CC1C(c2ccccc2)OCCN1C (configuration not stated) [Phendimetrazine] | 4.06 min
17 | CC1=NNC(=O)N(N=Cc2cccnc2)C1 [Pymetrozine] | 4.01 min
18 | COc1ccc2c3c1OC1C(=O)CCC4(O)C(C2)N(C)CCC314 (configuration not stated) [Oxycodone] | 3.61 min
19 | CC12CCC(=O)C=C1C=CC1C2CCC2(C)C1CCC21CCC(=O)O1 (configuration not stated) [Canrenone] | 9.77 min
20 | CCCC(NC)C(=O)c1ccccc1 (configuration not stated) [Pentedrone] | 4.89 min
21 | CCOC(=O)C(SP(=S)(OC)OC)c1ccccc1 (configuration not stated) [Phenthoate] | 10.7 min
22 | CCCN(CCC)c1c([N+](=O)[O-])cc(C(C)C)cc1[N+](=O)[O-] [Isopropalin] | 13.2 min
23 | CCCCn1cc(C(=O)c2cccc3ccccc23)c2ccc(O)cc21 [JWH-073-M-6-OH-Ind] | 10.6 min
24 | CCNC(C)Cc1ccccc1 (configuration not stated) [Amphetamine-N-Ethyl] | 4.4 min
25 | COc1cc(OC)nc(Oc2cccc(Oc3nc(OC)cc(OC)n3)c2C(=O)O)n1 [Bispyribac] | 8.86 min
26 | COc1ccc2c3c1OC1C(=O)CCC4C(C2)N(C)CCC314 (configuration not stated) [Hydrocodone] | 3.69 min
27 | O=C1CN(O)C(c2ccccc2)=c2cc(Cl)ccc2=N1 [Demoxepam] | 7.14 min
28 | COc1nc(NC(C)C)nc(NC(C)C)n1 [Prometon] | 8.86 min
29 | CCCCCn1cc(C(=O)Oc2cccc3cccnc23)c2ccccc21 [PB-22] | 11.9 min

Now from value to compound:

Row | LC retention time | Structure (SMILES)
30 | 5.51 min | CN1CCCC1Cc1c[nH]c2ccc(CCS(=O)(=O)c3ccccc3)cc12 (configuration not stated) [Eletriptan]
31 | 4.98 min | CN(C)CCC(c1ccccc1)c1ccccn1 (configuration not stated) [Pheniramine]
32 | 8.73 min | CC1(C)OC2CC3C4CC(F)C5=CC(=O)C=CC5(C)C4(F)C(O)CC3(C)C2(C(=O)CO)O1 (configuration not stated) [Fluocinolone acetonide]
33 | 8.99 min | COc1ccc2cc(C(C)C(=O)O)ccc2c1 (configuration not stated) [Naproxen]
34 | 8.39 min | COC(=O)C1=C(C)NC(C)=C(C(=O)OCCN(C)Cc2ccccc2)C1c1cccc([N+](=O)[O-])c1 (configuration not stated) [Nicardipine]
35 | 7.52 min | CC(CN(C)C)CN1c2ccccc2Sc2ccc(C#N)cc21 (configuration not stated) [Cyamemazine]
36 | 10.1 min | CC(=O)C1(O)CCC2C3C=C(Cl)C4=CC(=O)C5CC5C4(C)C3CCC21C (configuration not stated) [Cyproterone]
37 | 9.96 min | CC(C)c1c(C(=O)Nc2ccccc2)c(-c2ccccc2)c(-c2ccc(F)cc2)n1CCC(O)CC(O)CC(=O)O (configuration not stated) [Atorvastatin]
38 | 5.01 min | COC(=O)C(Cc1ccccc1)NC(=O)C(N)CC(=O)O (configuration not stated) [Aspartame]
39 | 9.21 min | CCCCC(=O)N(Cc1ccc(-c2ccccc2-c2nn[nH]n2)cc1)C(C(=O)O)C(C)C (configuration not stated) [Valsartan]
40 | 5.66 min | Cc1ccccc1N1CCN(CCc2nnc3n2CCCC3)CC1 [Dapiprazole]
41 | 6.56 min | CN(CC1(C)CCCO1)S(=O)(=O)c1ccc(Cl)c(S(N)(=O)=O)c1 (configuration not stated) [Mefruside]
42 | 9.27 min | O=C(Nc1ccc(Cl)cc1C(O)c1ccccc1)c1ccncc1 (configuration not stated) [Inabenfide]
43 | 6.31 min | CC(CN(C)C)C(C)(O)Cc1ccc(Cl)cc1 (configuration not stated) [Clobutinol]
44 | 9.28 min | CCCc1nn(C)c2c(=O)[nH]c(-c3cc(C(=O)CN4CCN(CC=Cc5ccccc5)CC4)ccc3OCC)nc12 [Cinnamyldenafil]
45 | 6.99 min | CC(Cc1ccc(C(C)C(=O)O)cc1)C(=O)O (configuration not stated) [Ibuprofen-Carboxy]
46 | 4.75 min | COc1cc(NS(=O)(=O)c2ccc(N)cc2)ncn1 [Sulfamonomethoxine]

Row | LC retention time | Structure (SMILES)
47 | 7.7 min | O=c1c(-c2ccc(O)cc2)coc2cc(O)cc(O)c12 [Genistein]
48 | 6.03 min | NC(=O)N1c2ccccc2C=Cc2cc(O)ccc21 [2-Hydroxycarbamazepine]
49 | 6.25 min | CN(C)CCC(c1ccc(Cl)cc1)c1ccccn1 (configuration not stated) [Chlorpheniramine]
50 | 3.18 min | CCN1CCCC1CNC(=O)c1cc(S(N)(=O)=O)ccc1O (configuration not stated) [Sulpiride-O-Desmethyl]
51 | 9.83 min | COc1cc(CNC(=O)CCCCC=CC(C)C)ccc1O [Capsaicin]
52 | 6.27 min | O=C(CCCl)NCc1ccccc1 [Beclamide]
53 | 11.5 min | CCCc1nn(C)c2c(=S)nc(-c3cc(C(=S)N4CCN(C)CC4)ccc3OCC)[nH]c12 [carbodenafil-Dithio-desmethyl]
54 | 4.63 min | Cc1cc(O)cc(C)c1S(C)=O (configuration not stated) [Methiocarb-sulfoxide phenol]
55 | 8.92 min | CCN(CC)CC#CCOC(=O)C(O)(c1ccccc1)C1CCCCC1 (configuration not stated) [Oxybutynin]
56 | 12.1 min | CCCCc1oc2ccccc2c1C(=O)c1cc(I)c(OCCN(CC)CC)c(I)c1 [Amiodarone]
57 | 7.19 min | COc1ccc(CCN(C)CCCC(C#N)(c2cc(OC)c(OC)c(OC)c2)C(C)C)cc1OC (configuration not stated) [Gallopamil]
58 | 4.96 min | CN1CCN(c2cc3c(cc2F)c(=O)c(C(=O)O)cn3-c2ccc(F)cc2)CC1 [Difloxacin]
59 | 1.39 min | Nc1ccn(C2OC(CO)C(O)C2O)c(=O)n1 (configuration not stated) [Cytarabin]
60 | 5.42 min | CN1Cc2c(N)cccc2C(c2ccccc2)C1 (configuration not stated) [Nomifensine]
61 | 2.89 min | CC(C)(C)NCC(O)c1ccc(O)c(NC(N)=O)c1 (configuration not stated) [Carbuterol]
62 | 3.71 min | NNCCc1ccccc1 [Phenelzine]
